{"source": "paper PMC6235670", "about": "“An mTOR Signaling Modulator Suppressed Heterotopic Ossification of Fibrodysplasia Ossificans Progressiva” (Stem Cell Reports, 2018)", "key": {"FOP-iMSCs [1]": {"tested_on": "FOP-iMSCs", "details": "TGF-β3 10 ng/mL, 7 days, 1 nM-1 µM", "excerpt": "(§1) Generation of ATDC5 stably expressing ACVR1. WT - or FOP-ACVR1 was inserted into doxycycline (Dox)- inducible vector KW111 (Woltjen et al., 2009), which enables us to easily produce stably expressing cell lines utilizing the piggyBac (PB) transposon system from the cabbage looper moth Trichoplusia ni (Ding et al., 2005) (KW111/WT-ACVR1 or KW111/FOP-ACVR1). KW111/WT-ACVR1 or KW111/FOP-ACVR1 and PBaseII plasmid (PB transposase expression vector) ( Matsui et al., 2014 ) were co-transfected into ATDC5 cells by FuGeneHD® (Promega) according to the manufacturer’s protocol, and the neomycin- resistant population (500 µg/mL) was selected. Further selection was performed by selecting a mCherry high positive population (< 5%) after six hours of Dox treatment, sorting it with fluorescent-activated cell sorting (FACS) using AriaII (BD) according to the manufacturer’s protocol, and designating it as ATDC5/WT-ACVR1 or ATDC5/FOP-ACVR1. […]\n(§2) HTS campaign and follow-up screens. […] After 3 days incubation, Alkaline Phosphatase activity (ALP) or AlamarBlue activity was measured using Amplite™ Colorimetric Alkaline Phosphatase Assay Kit (AAT Bioquest) or alamarBlue® Cell Viability Reagent (Thermo Fisher Scientific) according to the manufacturer’s protocol, respectively. T h e absorbance at 400 nm (Abs for ALP) or Relative Fluorescent Unit of Ex560/Em590 nm (RFU for AlamarBlue) was measured on POWERSCAN4 (DS Pharma Biomedical) or EnVision® Multilabel Reader (PerkinElmer).\n(§3) Inhibitory effects of the screened compounds are given as percent inhibition, which was calculated using the following equation: (1-([Abs of compound] - [Abs of Min])/([Abs of Max] - [Abs of Min]))× 100, where [Abs of Max] and [Abs of Min] are the mean Abs of DMSO control and 1 µM DMH-1, respectively. The Z’ factor, which is widely used as a measure of the assay quality of each plate, was calculated using the following equation: Z’ factor = 1 - 3 × ([SD of Max] + [SD of Min])/([Abs of Max] - [Abs of Min]) (SI Appendix, Fig. […]"}, "resFOP-iMSCs": {"tested_on": "resFOP-iMSCs", "excerpt": "as §1, §2, §3"}, "mTOR signaling (p-S6)": {"tested_on": "mTOR signaling (p-S6)", "assay": "p-S6 western blotting during chondrogenic induction of FOP-iMSCs with activin A", "format": "cell-based, human", "details": "1 μM", "method": "Western blotting. SDS- PAGE and blotting with whole-cell lysates were performed by standard procedures.\nProtein bands were detected with ECL Prime Western Blotting Detection Reagent (GE Healthcare) and visualized using BIO-RAD Molecular Imager® Chemi-DocTM XRS+ with Image LabTM software (Bio-Rad).\nAll data (relative intensity) were corrected by β-actin.\nAntibodies for western blotting and immunostaining.\nN ame Company Cat. No Concentration\nHuman Activin RIA/ALK-2 Antibody R&D Systems) AF637 1:100\nAnti-human Vimentin antibody Abcam ab16700 1:40\nCollagen I Antibody Novus NB600- 1:100\nAnti-rabbit IgG, HRP-linked Antibody Cell Signaling #7074 1:10000 […]\n2nd Goat anti-Rabbit IgG (H+L) Secondary Antibody, Invitrogen A-11008 1:100 antibody Alexa Fluor® 488 conjugate\nGoat anti-Rabbit IgG (H+L) Secondary Antibody, Invitrogen A-21428 1:500"}, "FOP-iMSCs [2]": {"tested_on": "FOP-iMSCs", "assay": "2D chondrogenic induction of FOP-iMSCs with activin A (GAG, Alcian blue)", "format": "cell-based, human"}, "[3]": {"assay": "AlamarBlue viability assay in ATDC5/FOP-ACVR1", "details": "mouse", "method": "Generation of ATDC5 stably expressing ACVR1. WT - or FOP-ACVR1 was inserted into doxycycline (Dox)- […]\n(KW111/WT-ACVR1 or KW111/FOP-ACVR1). KW111/WT-ACVR1 or KW111/FOP-ACVR1 and PBaseII […]\nFuGeneHD® (Promega) according to the manufacturer’s protocol, and the neomycin- resistant population (500 µg/mL) was selected. Further selection was performed by selecting a mCherry high positive population (< 5%) after six hours of Dox treatment, sorting it with fluorescent-activated cell sorting (FACS) using AriaII (BD) according to the manufacturer’s protocol, and designating it as ATDC5/WT-ACVR1 or ATDC5/FOP-ACVR1.\nKW111 included PB, active transposable PB elements; TRE-mCMVP, Tetracycline Response Element and a minimal CMV promoter; rtTA, reverse tetracycline-controlled transactivator. PBaseII was an expression plasmid vector containing the PB transposase cDNA with optimized codon usage to human under the control […]\nHTS campaign and follow-up screens. ATDC5/FOP-ACVR1 cells were plated in 96-well white plates (2,000 cells/well/40 µ L, Corning) in DMEM/F-12 supplemented with 5% (v/v) FBS. […]\n37 °C under 5% CO2. After 3 days incubation, Alkaline Phosphatase activity (ALP) or AlamarBlue activity was measured using Amplite™ Colorimetric Alkaline Phosphatase Assay Kit (AAT Bioquest) or alamarBlue® Cell Viability Reagent (Thermo Fisher Scientific) according to the manufacturer’s protocol, respectively. T h e […]\nwas measured on POWERSCAN4 (DS Pharma Biomedical) or EnVision® Multilabel Reader (PerkinElmer).\nInhibitory effects of the screened compounds are given as percent inhibition, which was calculated using the following equation: (1-([Abs of compound] - [Abs of Min])/([Abs of Max] - [Abs of Min]))× 100, where [Abs of Max] and [Abs of Min] are the mean Abs of DMSO control and 1 µM DMH-1, respectively. The Z’ factor, which is widely used as a measure of the assay quality of each plate, was calculated using the following equation: Z’ factor = 1 - 3 × ([SD of Max] + [SD of Min])/([Abs of Max] - [Abs of Min]) (SI Appendix, Fig.\nThe S/B (signal-to-background) ratio was calculated using the following equation: ([Abs of Max]/[Abs of Min]) (SI Appendix, Fig. S3B).\nUsing ATDC5/FOP-ACVR1 cells, we performed a first screening (n=2; test compounds = 1 µM, Fig. […]"}}, "data": [{"compound": "FC(F)(F)c1ccc(/C=C/c2nc(COc3ccc(CCCCn4ccnn4)cc3)co2)cc1", "note": "[TAK 165, mubritinib]", "values": [{"measurement": "chondrogenesis of FOP-iMSCs stimulated with TGF-β3 (GAG)", "setting": "FOP-iMSCs [1]", "value": "suppressed"}, {"measurement": "chondrogenesis of resFOP-iMSCs stimulated with Activin-A (GAG)", "setting": "resFOP-iMSCs; Activin-A 100 ng/mL, 7 days, 1 nM-1 µM", "value": "suppressed"}, {"measurement": "effect on FOP cells versus normal cells", "setting": "resFOP-iMSCs; FOP-iMSCs vs resFOP-iMSCs", "value": "stronger effects on FOP cells than on normal cells"}, {"measurement": "p-S6 after 24-hr stimulation", "setting": "mTOR signaling (p-S6); 24 hr", "value": "no effects"}, {"measurement": "p-S6 after 7 days of stimulation", "setting": "mTOR signaling (p-S6); 7 days", "value": "dramatically decreased"}, {"measurement": "inhibition of glycosaminoglycan (GAG) production", "setting": "FOP-iMSCs [2]; 1 μM, activin A, 7 days", "value": "potent inhibition"}, {"measurement": "suppression of chondrogenic induction (GAG), dose dependence", "setting": "FOP-iMSCs [2]; activin A, 7 days", "value": "dose-dependent"}, {"measurement": "Alcian blue staining", "setting": "FOP-iMSCs [2]; compared with other HTS hits", "value": "obviously different effects"}, {"measurement": "viability at 3 days, 10 µM", "setting": "[3]", "value": 117, "unit": "%"}]}]}
